From US10660900B2 (priority 2014, dated 2020)
Values joined by “and” are separate entries in the source; they are usually repeats but may differ in a detail not shown here. Equal values may be shown once.

Tests used:
[1] = target: T1, OPRK (Homo sapiens, UniProt P41145); assay: Bias quantification G-protein/Beta-arrestin2; parameters: expressed in transfected cells; host or cells: CHO-K1
Experimental: Coupling efficiency (e-coupling) values indicated the relationship between the apparent binding affinity Ki versus the apparent functional potency EC50 of a given agonist ligand and used the equation pKi-pEC50. […] For inhibitory ligands, e-signal was calculated using maximal level of inhibition (Imax) normalized from 0 (basal, buffer) to 1 (agonist without inhibitor). Bias-coupling (quantification of pathway bias) was evaluated by subtracting the EC50 or the Ke issued from the G-protein pathway assays by those issued from β-arrestin pathway assays for a given ligand and in a linear (nM) scale. Bias-efficacy in favor of the G-protein pathway was evaluated by dividing the functional activation and the functional inhibition maximum responses (e-signal) from the G-protein pathway by the beta-arrestin pathway assays for a given ligand.

[2] = target: T2, human OPRM (Homo sapiens, UniProt P35372); assay: biochemical; type: binding; parameters: expressed in transfected cells; host or cells: CHO-K1 (cell line provided by Dr. Toll, Torrey Pines Institute); membranes prepared in house
[3] = target: T2, human OPRM; type: cell-based; parameters: host or cells: CHO-K1
[4] = Single ascending oral dose pharmacokinetics of noribogaine in healthy volunteers (plasma and urine, LCMSMS); settings: for CL/F: mean (SD), n = 6
[5] = target: T1, OPRK; assay: biochemical; parameters: expressed in transfected cells; host or cells: CHO-K1
[6] = target: T1, OPRK; assay: biochemical; type: binding; parameters: expressed in transfected cells; host or cells: CHO-K1; settings: [3H]-U69,593 Binding; This work
[7] = tested on: human OPRK; assay: biochemical; type: binding
[8] = QT interval in opioid-dependent patients; type: in vivo, human; settings: 60, 120, 180 mg; first 24 hours; correlated with serum concentration
Experimental: Patients' QT intervals were evaluated at regular time points throughout the study. […] A goodness-of-fit plot for the observed and predicted relation between noribogaine plasma levels and ΔΔQTc1 is provided in FIG. 9C.

T2 sequence (P35372 whole entry): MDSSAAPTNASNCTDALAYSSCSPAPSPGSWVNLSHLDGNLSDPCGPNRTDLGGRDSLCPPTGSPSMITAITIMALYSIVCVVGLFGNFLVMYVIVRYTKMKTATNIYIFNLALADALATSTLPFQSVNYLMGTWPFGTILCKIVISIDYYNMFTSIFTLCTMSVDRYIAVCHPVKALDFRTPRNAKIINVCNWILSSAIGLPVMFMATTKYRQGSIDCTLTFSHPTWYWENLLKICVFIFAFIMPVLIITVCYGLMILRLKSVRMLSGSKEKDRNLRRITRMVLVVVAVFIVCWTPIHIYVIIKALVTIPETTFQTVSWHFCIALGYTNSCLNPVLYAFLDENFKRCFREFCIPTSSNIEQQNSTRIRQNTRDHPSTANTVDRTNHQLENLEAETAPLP
T1 sequence (P41145 whole entry): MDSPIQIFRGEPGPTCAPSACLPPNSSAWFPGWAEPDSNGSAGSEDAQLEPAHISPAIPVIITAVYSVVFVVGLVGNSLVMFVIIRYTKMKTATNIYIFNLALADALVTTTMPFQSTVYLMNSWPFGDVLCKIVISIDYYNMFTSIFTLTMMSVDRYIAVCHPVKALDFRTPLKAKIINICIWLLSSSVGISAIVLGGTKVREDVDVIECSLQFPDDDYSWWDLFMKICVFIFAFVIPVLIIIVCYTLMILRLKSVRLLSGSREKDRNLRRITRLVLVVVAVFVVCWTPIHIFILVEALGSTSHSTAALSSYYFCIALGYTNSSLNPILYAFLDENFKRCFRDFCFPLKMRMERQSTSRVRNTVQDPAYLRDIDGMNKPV

## CC[C@H]1CC2C[C@H]3c4[nH]c5ccc(O)cc5c4CCN(C2)C13 [Noribogaine, noribogaine]
[1]
  efficacy bias relative to 6′GNTI: 2.4 ×
[1]; Activation
  Bias-coupling, Bias G-protein/Beta-arrestin2: 32
  Bias-efficacy, Bias G-protein/Beta-arrestin2: 0.59
[1]; Inhibition
  Bias-coupling, Bias G-protein/Beta-arrestin2: 144
  Bias-efficacy, Bias G-protein/Beta-arrestin2: −0.35
[2]
  pKi: 5.8
[3]
  Efficacy: 3%
  Efficacy (inhibition): −100~ %
  agonism of β-Arrestin-2 recruitment at OPRM: not an agonist at OPRM
  e-coupling (pKi-pKe): ~1.10
  inhibition of agonist response: 60-100%
  pEC50: 5.9
[4]; 3 mg single oral noribogaine
  CL/F: 41.4 (7.0) L/h
[4]; 10 mg single oral noribogaine
  CL/F: 42.3 (12.0) L/h
[4]; 30 mg single oral noribogaine
  CL/F: 46.9 (16.4) L/h
[4]; 60 mg single oral noribogaine
  CL/F: 34.0 (11.4) L/h
[4]; 3-60 mg single oral doses
  dose relation of Cmax and AUC: increased linearly with dose
[4]; across dose groups
  Volume of distribution: 1417 to 3086 L
[4]; plasma, across dose groups
  time of peak concentrations after oral noribogaine dosing: 2 to 3 h
[5]
  Efficacy (Emax): 70%
  Efficacy (inhibition): −30% and −25%
  e-coupling (pKi-pEC50): 1.08
  e-coupling, G-protein Pathway: 1.72 and 1.08
  own reduced signal level to which rival agonist signal is leveled down: 70%
  pEC50: 5.1
[5]; Ke
  Ki: 12 µM and 24 µM
[5]; read-out: EC50
  EC50: 8.75 µM and 8.7 µM
[5]; read-out: Efficacy (Emax)
  Emax: 72 ± 3.8%
[6]
  pKi: 6.1
[7]; from literature (or literature/this work) values
  ΔpKi = pKi(OPRK) − pKi(OPRM), OPRK Specificity: 0.4
[7]; from values of this work
  ΔpKi = pKi(OPRK) − pKi(OPRM), OPRK Specificity: 0.3
[8]
  QT interval prolongation (ΔQTcI): dose-dependent increase in QT interval prolongation
